The target in one assay is T1, aromatase (Rattus norvegicus, UniProt P22443).
T1 sequence (P22443 1-508): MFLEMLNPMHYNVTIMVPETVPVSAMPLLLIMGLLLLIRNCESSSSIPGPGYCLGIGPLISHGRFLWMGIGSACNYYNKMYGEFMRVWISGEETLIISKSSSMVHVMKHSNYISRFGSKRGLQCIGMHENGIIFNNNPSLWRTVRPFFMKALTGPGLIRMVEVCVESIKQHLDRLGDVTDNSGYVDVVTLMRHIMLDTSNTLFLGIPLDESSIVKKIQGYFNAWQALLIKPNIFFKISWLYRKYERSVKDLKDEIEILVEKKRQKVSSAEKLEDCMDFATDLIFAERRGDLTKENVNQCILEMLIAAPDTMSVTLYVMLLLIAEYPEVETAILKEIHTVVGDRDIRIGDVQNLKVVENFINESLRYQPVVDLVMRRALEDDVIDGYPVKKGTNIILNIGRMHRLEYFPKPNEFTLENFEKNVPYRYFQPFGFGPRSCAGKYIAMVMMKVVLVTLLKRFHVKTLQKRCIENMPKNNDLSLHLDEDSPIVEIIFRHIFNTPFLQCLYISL
Put plainly: biochemical. Particulars: rat ovarian microsomes; substrate (androstenedione) concentration 0.1 μM; inhibitors tested between 0.005 and 10 μM.

The next assay deals with breast cancer. Particulars: known aromatase inhibitors; Cancer Research, Vol. 42, Suppl. 8:3261s (1982); cited from earlier work.

The term EC50 denotes the concentration at which the effect is half-maximal.

Method for aromatase: In this test system, ovarian microsomes are obtained from rats treated with pregnant mares serum gonadotropin. Test compounds are added to reaction vials containing 0.1 μM 4-androstene-3,17-dione, 100,000 dpm 1,2[^3 H]-androstenedione, the microsomes and a NADPH generating system.

`c1ccc(C(c2ccccc2)(c2ccns2)n2cncn2)cc1` [Example 2, 5-(Diphenyl-1H-1,2,4-triazol-1-ylmethyl)-isothiazole] returned an EC50 at aromatase of 257 nM.

The compound `Clc1ccc(C(c2ccc(Cl)cc2)(c2ccns2)n2cncn2)cc1` [Example 7, 1-[Bis(4-chlorophenyl)-5-isothiazolemethyl]-1H-1,2,4-triazole] yielded an EC50 on aromatase of 51 nM.

Turning to `CCC1(c2ccc(N)cc2)CCC(=O)NC1=O` (stereo not shown) [aminoglutethimide], the “effect in treatment of breast cancer” value in the assay with breast cancer was “beneficial effect”.

As to `C[C@]12C=CC(=O)C=C1CC[C@@H]1[C@@H]2CC[C@]2(C)OC(=O)CC[C@@H]12` [testolactone], in the assay with breast cancer, the “effect in treatment of breast cancer” value is “beneficial effect”.

The record behind these values is US4602025A, “Aromatase inhibitors” (Eli Lilly and Company, priority 1984, dated 1986).
